We go through 9 compounds from DBAASP.

Some test systems named below: Aureobasidium pullulans; Escherichia coli BL21; Staphylococcus aureus; Escherichia coli; Candida albicans; Escherichia coli UB1005.
Holding throughout (assay): ≥ marks a high value that may be exact or a test limit, other limits are often not marked, values filed in µg/mL are converted to µM
Test [1] has as its system Micrococcus luteus ATCC 9341.
Test [2] has as its system Pseudomonas aeruginosa ATCC 9027.
Test [3] deals with Escherichia coli ATCC 2592.
For test [4], the system named is Staphylococcus aureus ATCC 6538.
In test [5] the test system is Candida albicans ATCC 36232.
In test [6] the test system is Corynebacterium glutamicum ATCC 13032.
In test [7] the test system is Candida albicans ATCC 10231.
Test [8] relates to Pseudomonas aeruginosa ATCC 27853.
Test [9] concerns Escherichia coli ATCC 25922.
Test [10] has as its system Staphylococcus aureus ATCC 9144.
For test [11], the system named is Staphylococcus aureus ATCC BAA-41.
Test [12] has as its system Staphylococcus epidermidis.
Test [13] concerns Staphylococcus aureus ATCC 6538P.
Test [14] has as its system Pseudomonas aeruginosa PAO1.
Test [15] has as its system Bifidobacterium longum subsp. infantis.
Test [16] concerns Pseudomonas aeruginosa 253.
In test [17] the test system is Pseudomonas aeruginosa 919.
Test [18] deals with Pseudomonas aeruginosa 910.
In test [19] the test system is Salmonella enterica serovar Typhimurium.
The test system of test [20] is Enterococcus faecalis ATCC 29212.
In test [21] the test system is Staphylococcus aureus ATCC 25923.
The subject of test [22] is Pseudomonas aeruginosa H103.

≈ marks a conversion by molar mass, not a printed value.

Take `CC(C)C[C@H](NC(=O)[C@H](CS)NC(=O)[C@H](Cc1cnc[nH]1)NC(=O)[C@H](C)NC(=O)[C@H](C)NC(=O)[C@H](CS)NC(=O)[C@H](C)NC(=O)[C@H](C)NC(=O)[C@@H](N)CC(=O)O)C(=O)N[C@@H](Cc1c[nH]c2ccccc12)C(=O)N[C@@H](CCCN=C(N)N)C(N)=O` [DAACAAHCLWR]: the MIC in [1] is ≥ 164 µM; in test [2] it was > 164 µM; in [3] it was ≥ 164 µM; in test [4], > 164 µM; in test [5], ≥ 164 µM.

`CC(C)[C@H](NC(=O)[C@H](CCCCN)NC(=O)[C@H](C)NC(=O)[C@@H](NC(=O)[C@@H](NC(=O)[C@H](CCCN=C(N)N)NC(=O)[C@H](CCCN=C(N)N)NC(=O)[C@H](Cc1c[nH]c2ccccc12)NC(=O)[C@H](Cc1c[nH]c2ccccc12)NC(=O)[C@H](C)N)[C@@H](C)O)C(C)C)C(=O)N[C@@H](CCCN=C(N)N)C(=O)N[C@@H](CCCCN)C(N)=O` [AWWRRTVAKVRK]: the MIC with Aureobasidium pullulans is ≥ 50 µM; in test [6], 0.8 µM (≈ 1.24 µg/mL); in [7] it was 25 µM (≈ 38.9 µg/mL); in test [8], 6.3 µM (≈ 9.8 µg/mL); in test [9], 12.5 µM (≈ 19.4 µg/mL); in [10], 25 µM (≈ 38.9 µg/mL).

For `CC[C@H](C)[C@H](NC(=O)[C@H](CCCCN)NC(=O)[C@H](CCCCN)NC(=O)[C@H](Cc1ccccc1)NC(=O)[C@H](CCCCN)NC(=O)[C@H](CCCCN)NC(=O)[C@H](Cc1c[nH]c2ccccc12)NC(=O)[C@@H](N)CCCCN)C(=O)NCC(=O)N[C@@H](C)C(=O)N[C@H](C(=O)N[C@@H](CC(C)C)C(=O)N[C@@H](CCCCN)C(=O)N[C@@H](CCCCN)C(=O)N[C@@H](CC(C)C)C(=O)O)C(C)C` [KWKKFKKIGAVLKKL], the MIC in [11] was 16 µM (≈ 29 µg/mL); in [12], 0.5 µM (≈ 0.908 µg/mL); with Escherichia coli BL21 it was 1.41 µM (≈ 2.57 µg/mL); in [13], 16 µM (≈ 29 µg/mL); in test [14], 1.41 µM (≈ 2.57 µg/mL).

On to `CC[C@H](C)[C@H](NC(=O)[C@@H]1CCCN1C(=O)[C@H](CCC(N)=O)NC(=O)[C@@H]1CCCN1C(=O)[C@@H](NC(=O)[C@H](CCC(N)=O)NC(=O)[C@H](CCC(N)=O)NC(=O)[C@H](CCSC)NC(=O)[C@H](CC(C)C)NC(=O)[C@@H]1CCCN1C(=O)[C@H](CCC(N)=O)NC(=O)[C@H](CC(C)C)NC(=O)[C@H](CC(C)C)NC(=O)[C@@H]1CCCN1C(=O)[C@H](CC(C)C)NC(=O)[C@@H]1CCCN1C(=O)[C@H](CC(C)C)NC(=O)[C@@H](N)Cc1cnc[nH]1)C(C)C)C(=O)O` [HLPLPLLQPLMQQVPQPI], for which the minimal inhibitory concentration (MIC) was > 1450 µM against Staphylococcus aureus, > 1450 µM against Escherichia coli and ≥ 1450 µM in test [15].

For the compound `CC(C)[C@H](NC(=O)[C@H](C)NC(=O)[C@H](CCCN=C(N)N)NC(=O)[C@H](CCCN=C(N)N)NC(=O)[C@H](Cc1c[nH]c2ccccc12)NC(=O)[C@H](Cc1c[nH]c2ccccc12)NC(=O)CN)C(=O)N[C@@H](C)C(=O)N[C@@H](CCCCN)C(=O)N[C@H](C(=O)N[C@@H](CCCN=C(N)N)C(=O)N[C@@H](CCCCN)C(N)=O)C(C)C` [GWWRRAVAKVRK], the MIC against Aureobasidium pullulans worked out at 25 µM (≈ 37.8 µg/mL); in [6], 1.6 µM (≈ 2.42 µg/mL); in test [7] it was 25 µM (≈ 37.8 µg/mL); in test [8] it was 3.1 µM (≈ 4.69 µg/mL); in test [9], 3.1 µM (≈ 4.69 µg/mL); in test [10] it was 12.5 µM (≈ 18.9 µg/mL).

In the case of `CC[C@H](C)[C@H](NC(=O)[C@@H](N)Cc1ccccc1)C(=O)N[C@@H](CCCCN)C(=O)N[C@@H](Cc1c[nH]c2ccccc12)C(=O)N[C@@H](CCCN=C(N)N)C(=O)N[C@@H](Cc1ccccc1)C(=O)N[C@@H](CCCN=C(N)N)C(=O)N[C@@H](CCCN=C(N)N)C(=O)N[C@@H](Cc1c[nH]c2ccccc12)C(=O)N[C@@H](CCCCN)C(=O)N[C@@H](CCCCN)C(=O)N[C@@H](CCCN=C(N)N)C(=O)N[C@@H](CCCCN)C(N)=O` [FIKWRFRRWKKRK], the MIC is 8 µM (≈ 15.5 µg/mL) in test [16], 22.6 µM (≈ 43.8 µg/mL) in test [17], 4 µM (≈ 7.74 µg/mL) in test [14] and 5.66 µM (≈ 10.9 µg/mL) in test [18].

As to `CC[C@H](C)[C@H](NC(=O)[C@H](CCCN=C(N)N)NC(=O)[C@H](C)NC(=O)[C@H](CC(C)C)NC(=O)[C@@H](N)CCCN=C(N)N)C(=O)N[C@H](C(=O)N[C@H](C(=O)N[C@H](C(=O)N[C@@H](CCCN=C(N)N)C(=O)N[C@@H](Cc1c[nH]c2ccccc12)C(=O)N[C@@H](C)C(=O)N[C@@H](CCCN=C(N)N)C(N)=O)[C@@H](C)CC)C(C)C)C(C)C` [RLARIVVIRWAR], the MIC in test [16] was determined as 16 µM (≈ 24.1 µg/mL); in [12] it was 1.33 µM (≈ 2 µg/mL); in test [17], 16 µM (≈ 24.1 µg/mL); against Candida albicans it was 5.3 µM (≈ 7.99 µg/mL); in test [19] it was 5.3 µM (≈ 7.99 µg/mL); with Escherichia coli UB1005, 2.65 µM (≈ 4 µg/mL). The minimum inhibitory concentration (MIC) in test [20] worked out at 2.65 µM (≈ 4 µg/mL); in [14], 16 µM (≈ 24.1 µg/mL); in test [21] it was 5.3 µM (≈ 7.99 µg/mL); in [18] it was 16 µM (≈ 24.1 µg/mL); in test [22], 10.6 µM (≈ 16 µg/mL).

On to `CC[C@H](C)[C@H](NC(=O)[C@H](CCC(N)=O)NC(=O)[C@@H](N)Cc1cnc[nH]1)C(=O)N[C@@H](Cc1ccc(O)cc1)C(=O)N1CCC[C@H]1C(=O)N[C@H](C(=O)N[C@H](C(=O)N[C@@H](CCC(N)=O)C(=O)N1CCC[C@H]1C(=O)N[C@@H](CC(C)C)C(=O)O)[C@@H](C)O)C(C)C` [HQIYPVTQPL], for which the minimum inhibitory concentration (MIC) in the test with Staphylococcus aureus was > 2510 µM; in the test with Escherichia coli, > 2510 µM; in test [15], ≥ 2510 µM.

As to `CC[C@H](C)[C@H](NC(=O)[C@H](CCCCN)NC(=O)[C@H](CCCCN)NC(=O)[C@H](Cc1ccccc1)NC(=O)[C@H](CC(C)C)NC(=O)[C@H](CCCCN)NC(=O)[C@H](Cc1c[nH]c2ccccc12)NC(=O)[C@@H](N)CCCCN)C(=O)NCC(=O)N[C@@H](CCCCN)C(=O)N[C@H](C(=O)N[C@@H](CC(C)C)C(=O)N[C@@H](CCCCN)C(=O)N[C@@H](CCCCN)C(=O)N[C@@H](CC(C)C)C(=O)O)C(C)C` [KWKLFKKIGKVLKKL], the MIC amounted to 16 µM (≈ 29.7 µg/mL) in test [11]; 0.25 µM (≈ 0.464 µg/mL) in test [12]; 1 µM (≈ 1.86 µg/mL) against Escherichia coli BL21; 5.66 µM (≈ 10.5 µg/mL) in [13]; 1.41 µM (≈ 2.63 µg/mL) in test [14].
